Data as given in patent US20260248774A1, “INHIBITORS OF BACTERIAL TYPE III SECRETION SYSTEM” (MICROBIOTIX, INC., priority 2022, published 2026).

System: P. aeruginosa T3SS-mediated secretion of ExoS-β-lactamase fusion protein
Experiment: Effector-β-lactamase (ExoS-βLA) reporter assay of T3SS-mediated secretion
Assay type: cell-based, Pseudomonas aeruginosa
Settings: read-out: ExoS-BLA IC50; Table 1
Description: Effector-β-Lactamase (βLA) Reporter Assay of T3SS-Mediated Secretion with an Absorbency Signal.
A gene encoding the exoS promoter/regulatory region and an ExoS-β-lactamase (βLA) fusion protein (comprised of the full length P. aeruginosa T3SS effector ExoS fused in reading frame to the TEM-1 β-lactamase gene lacking secretion signal codons) was constructed by splicing by overlap extension PCR (SOE-PCR) (Choi and Schweizer, 2005, BMC Microbiol., 5:30), sequence confirmed, cloned into miniCTX and introduced into P. aeruginosa strain PAO1 to generate strains MDM1746 and MDM1838 as previously described for strain MDM1710 (Bowlin et al., 2014, Antimicrob Agents Chemother., 58:2211-2220). Secretion of ExoS-β-lactamase fusion protein following EGTA addition to induce the T3SS operons was detected by measuring the hydrolysis of the chromogenic β-lactamase substrate nitrocefin in clear 96-well microplates in a modification of a previously described assay (Lee, et al., 2007, Infect. Immun., 75:1089-98). Cells of strain MDM1746, or negative control MDM1838 (which fails to carry out T3SS secretion due to ΔpscF), were sub-cultured in the morning from overnight growths in LBG into 0.1 ml of LBGE with or without test compounds and grown for 150 min. Nitrocefin (100 μg/mL final) was added, and A490 measurements taken every minute for 15 min in a Victor^3V 1420 Multilabel HTS Counter (PerkinElmer). Slopes were calculated as a relative measure of the quantity of the effector-βLA fusion protein secreted and were absolutely dependent on induction with EGTA, and the presence of a functional pscF gene in the P. aeruginosa cells. Typical signal: background ratios were 6-10.

Point of comparison: `CCC(Oc1ncc(Cl)cc1Cl)C(=O)NCc1ccc(F)cc1` (centres unmarked) [MBX-2264], IC50 2 µM. Against it:
- CC(Oc1ccc(Cl)cc1Cl)C(=O)NCc1ccc2c(c1)OCO2 (centres unmarked) [MBX-1641, N-(benzo[d][1,3]dioxol-5-ylmethyl)-2-(2,4-dichlorophenoxy)propanamide, reference compound] — 5-fold higher, 10 µM
- CCC(Oc1ncc(Cl)cc1Cl)C(=O)NCc1ccc2c(c1)OCO2 (centres unmarked) [MBX-2263] — the same, 2 µM
- CCC(Oc1ncc(Cl)cc1Cl)C(=O)NCc1ccc2sccc2c1 (centres unmarked) [MBX-2359, reference compound] — within 1.5-fold, 1.5 µM
- CC(Oc1ccc(Cl)cc1Cl)C(=O)NCc1cc2ccccc2[nH]1 (centres unmarked) [MBX-2624] — 4.5-fold higher, 9 µM
- CC(Oc1ccc(Cl)cc1Cl)C(=O)NC(CO)c1ccc(F)cc1 (centres unmarked) [MBX-2625] — 2.5-fold higher, 5 µM
- CC(Oc1ccc(Cl)cc1Cl)C(=O)NCC(O)c1ccc(F)cc1 (centres unmarked) [MBX-2785] — 7.5-fold higher, 15 µM
- CC(=O)Nc1ccc(CCNC(=O)C(C)Oc2ccc(Cl)cc2Cl)cc1 (centres unmarked) [MBX-2837] — 4.5-fold higher, 9 µM

Same assay, conditions: read-out: ExoS-BLA IC50; Table 6

Point of comparison: `CCC(Oc1ncc(Cl)cc1Cl)C(=O)NCc1ccc2sccc2c1` (centres unmarked) [MBX-2359, reference compound], IC50 1.5 µM. Against it:
- CC(Oc1ccc(Cl)cc1Cl)C(=O)NCc1ccc2c(c1)OCO2 (centres unmarked) [MBX-1641, N-(benzo[d][1,3]dioxol-5-ylmethyl)-2-(2,4-dichlorophenoxy)propanamide, reference compound] — 6.7-fold higher, 10 µM

System: P. aeruginosa T3SS-mediated secretion (exoT-luxCDABE reporter strain MDM852)
Experiment: Luciferase (exoT-lux) transcriptional reporter assay of T3SS-mediated secretion
Assay type: cell-based, Pseudomonas aeruginosa
Settings: read-out: LUX IC50; Table 6
Description: Luciferase Transcriptional Reporter Assay of T3SS-Mediated Secretion with a Luminescent Signal.
A transcriptional fusion of the Photorhabdus luminescens lux operon (luxCDABE) to P. aeruginosa PAO1 T3SS effector gene exoT (PA0044) was constructed and used to build strain MDM852 as described previously (Aiello et al., 2010, Antimicrob Agents Chemother, 54:1988-1999). Induction of T3SS operons by Ca^++ depletion due to EGTA addition results in secretion of the T3SS negative regulator ExsE and the production of high levels of T3SS components including the luxCDABE gene products, which results in luminescence that is easily detected by a microplate reader. Inhibition of T3SS-mediated secretion of the negative regulator ExsE by a small molecule inhibitor causes reduced production of luxCDABE gene products and reduced luminescence. For inhibitor IC50 testing, compounds were added to a 96-well microplate in a concentration dilution series. Reporter strain MDM852 was grown at 37° C. in LBG to OD600 ~0.025-0.05, transferred into the microplate (50 uL/well) containing test compounds and EGTA (5 uL of 0.1 M stock solution), which was covered with a translucent gas-permeable seal (Abgene, Inc., Cat. No. AB-0718). […] Plates were incubated at room temperature for 300 min. Then, luminescence was measured in an Envision Multilabel microplate reader (PerkinElmer). The screening window coefficient, Z′-factor (see Zhang, et al., 1999, J. Biomol. Screen., 4:67-73), defined as the ratio of the positive and negative control separation band to the signal dynamic range of the assay, averaged 0.7 for the assay.

Point of comparison: `CC(Oc1ccc(Cl)cc1Cl)C(=O)NCc1ccc2c(c1)OCO2` (centres unmarked) [MBX-1641, N-(benzo[d][1,3]dioxol-5-ylmethyl)-2-(2,4-dichlorophenoxy)propanamide, reference compound], IC50 4.7 µM. Against it:
- CCC(Oc1ncc(Cl)cc1Cl)C(=O)NCc1ccc2sccc2c1 (centres unmarked) [MBX-2359, reference compound] — 3.6-fold lower, 1.3 µM

Same assay, conditions: read-out: LUX Sec IC50; Table 1

Point of comparison: `CC(Oc1ccc(Cl)cc1Cl)C(=O)NCc1cc2ccccc2[nH]1` (centres unmarked) [MBX-2624], IC50 8.7 µM. Against it:
- CC(Oc1ccc(Cl)cc1Cl)C(=O)NCc1ccc2c(c1)OCO2 (centres unmarked) [MBX-1641, N-(benzo[d][1,3]dioxol-5-ylmethyl)-2-(2,4-dichlorophenoxy)propanamide, reference compound] — 1.9-fold lower, 4.7 µM
- CCC(Oc1ncc(Cl)cc1Cl)C(=O)NCc1ccc2c(c1)OCO2 (centres unmarked) [MBX-2263] — 3.2-fold lower, 2.7 µM
- CCC(Oc1ncc(Cl)cc1Cl)C(=O)NCc1ccc(F)cc1 (centres unmarked) [MBX-2264] — 4.3-fold lower, 2 µM
- CCC(Oc1ncc(Cl)cc1Cl)C(=O)NCc1ccc2sccc2c1 (centres unmarked) [MBX-2359, reference compound] — 6.7-fold lower, 1.3 µM
- CC(Oc1ccc(Cl)cc1Cl)C(=O)NC(CO)c1ccc(F)cc1 (centres unmarked) [MBX-2625] — within 1.5-fold, 7.1 µM
- CC(Oc1ccc(Cl)cc1Cl)C(=O)NCC(O)c1ccc(F)cc1 (centres unmarked) [MBX-2785] — 2.1-fold higher, 18 µM
- CC(=O)Nc1ccc(CCNC(=O)C(C)Oc2ccc(Cl)cc2Cl)cc1 (centres unmarked) [MBX-2837] — 2.5-fold lower, 3.5 µM

System: T3SS-mediated translocation of ExoU by P. aeruginosa strain MDM1561 (PA99U) into CHO cells
Experiment: P. aeruginosa ExoU-dependent CHO cell killing assay for T3SS-mediated translocation
Assay type: cell-based, Pseudomonas aeruginosa
Settings: assessment in text on Table 1
Description: P. aeruginosa ExoU-Dependent CHO Cell Killing.

For `CCC(Oc1ncc(Cl)cc1Cl)C(=O)NCc1ccc(F)cc1` (centres unmarked) [MBX-2264], the “potency of inhibition of T3SS-mediated translocation” value was “not quite potent enough”.
For `CC(Oc1ccc(Cl)cc1Cl)C(=O)NCC(O)c1ccc(F)cc1` (centres unmarked) [MBX-2785], the “potency of inhibition of T3SS-mediated translocation” value was “not quite potent enough”.

Same assay, conditions: read-out: Translocation EC50; Table 1

Point of comparison: `CCC(Oc1ncc(Cl)cc1Cl)C(=O)NCc1ccc2c(c1)OCO2` (centres unmarked) [MBX-2263], EC50 17 µM. Against it:
- CC(Oc1ccc(Cl)cc1Cl)C(=O)NCc1ccc2c(c1)OCO2 (centres unmarked) [MBX-1641, N-(benzo[d][1,3]dioxol-5-ylmethyl)-2-(2,4-dichlorophenoxy)propanamide, reference compound] — within 1.5-fold, 15 µM
- CCC(Oc1ncc(Cl)cc1Cl)C(=O)NCc1ccc(F)cc1 (centres unmarked) [MBX-2264] — higher, > 35 µM
- CC(Oc1ccc(Cl)cc1Cl)C(=O)NCc1cc2ccccc2[nH]1 (centres unmarked) [MBX-2624] — the same, 17 µM
- CC(Oc1ccc(Cl)cc1Cl)C(=O)NC(CO)c1ccc(F)cc1 (centres unmarked) [MBX-2625] — within 1.5-fold, 22 µM
- CC(Oc1ccc(Cl)cc1Cl)C(=O)NCC(O)c1ccc(F)cc1 (centres unmarked) [MBX-2785] — within 1.5-fold, 25 µM
- CC(=O)Nc1ccc(CCNC(=O)C(C)Oc2ccc(Cl)cc2Cl)cc1 (centres unmarked) [MBX-2837] — within 1.5-fold, 13 µM

Same assay, conditions: read-out: Translocation EC50; Table 6

`CC(Oc1ccc(Cl)cc1Cl)C(=O)NCc1ccc2c(c1)OCO2` (centres unmarked) [MBX-1641, N-(benzo[d][1,3]dioxol-5-ylmethyl)-2-(2,4-dichlorophenoxy)propanamide, reference compound] showed an EC50 of 15 µM.

System: not listed separately
Experiment: Mammalian cytotoxicity (CC50), MTS conversion
Assay type: cell-based, human
Settings: human, HeLa cells, Table 1; HeLa; read-out: Cytotox-HeLa CC50
Description: (§1) Determination of Mammalian Cytotoxicity.
(§2) Following incubation for 3 days at 37° C. in VP-SFM, cell viability was measured with the vital tetrazolium salt stain 3-(4,5-dimethylthiazol-2-yl)-2,5 diphenyltetrazolium bromide according to the manufacturer's instructions (Promega, Madison, Wisconsin). Values were determined in triplicate using dilutions of inhibitory compound from 100 μM to 0.2 μM.

Point of comparison: `CC(Oc1ccc(Cl)cc1Cl)C(=O)NCc1cc2ccccc2[nH]1` (centres unmarked) [MBX-2624], CC50 at 3 days 9 µM. Against it:
- CCC(Oc1ncc(Cl)cc1Cl)C(=O)NCc1ccc2c(c1)OCO2 (centres unmarked) [MBX-2263] — higher, > 100 µM
- CCC(Oc1ncc(Cl)cc1Cl)C(=O)NCc1ccc(F)cc1 (centres unmarked) [MBX-2264] — 9.4-fold higher, 85 µM

System: HeLa cells
Experiment: Mammalian cytotoxicity (CC50), MTS conversion
Assay type: cell-based, human
Settings: assessment in text on Table 1
Description: as §1, §2

With `CC(Oc1ccc(Cl)cc1Cl)C(=O)NCc1cc2ccccc2[nH]1` (centres unmarked) [MBX-2624] the “cytotoxicity” value was “exhibit cytotoxicity”.

System: not listed separately
Experiment: Kinetic aqueous solubility (nephelometric assay)
Assay type: physicochemical
Settings: Table 1
Description: Solubility. The maximum aqueous solubility of analogs will be initially determined by nephelometry using a published method (44).

Point of comparison: `CC(Oc1ccc(Cl)cc1Cl)C(=O)NCc1cc2ccccc2[nH]1` (centres unmarked) [MBX-2624], Sol 100 µM. Against it:
- CCC(Oc1ncc(Cl)cc1Cl)C(=O)NCc1ccc2c(c1)OCO2 (centres unmarked) [MBX-2263] — 4-fold lower, 25 µM
- CCC(Oc1ncc(Cl)cc1Cl)C(=O)NCc1ccc(F)cc1 (centres unmarked) [MBX-2264] — 2-fold higher, 200 µM

Same assay, conditions: assessment in text on Table 1

With `CCC(Oc1ncc(Cl)cc1Cl)C(=O)NCc1ccc2c(c1)OCO2` (centres unmarked) [MBX-2263] the “solubility for formulation” value was “not soluble enough”.
